Columns and labels:
Format in all cases: cell-based
D2R [1] = target: T1, D2R (Homo sapiens, UniProt P14416); experiment: BRET-based β-arrestin recruitment assay at D2R (10 min); conditions: D2R, 10 min; for EC50: read-out: β-arrestin Recruitment pEC50 ± SEM (converted)
T1 construct: expressed in transfected cells; host or cells: HEK293T
Target sequence in this assay (P14416 whole entry): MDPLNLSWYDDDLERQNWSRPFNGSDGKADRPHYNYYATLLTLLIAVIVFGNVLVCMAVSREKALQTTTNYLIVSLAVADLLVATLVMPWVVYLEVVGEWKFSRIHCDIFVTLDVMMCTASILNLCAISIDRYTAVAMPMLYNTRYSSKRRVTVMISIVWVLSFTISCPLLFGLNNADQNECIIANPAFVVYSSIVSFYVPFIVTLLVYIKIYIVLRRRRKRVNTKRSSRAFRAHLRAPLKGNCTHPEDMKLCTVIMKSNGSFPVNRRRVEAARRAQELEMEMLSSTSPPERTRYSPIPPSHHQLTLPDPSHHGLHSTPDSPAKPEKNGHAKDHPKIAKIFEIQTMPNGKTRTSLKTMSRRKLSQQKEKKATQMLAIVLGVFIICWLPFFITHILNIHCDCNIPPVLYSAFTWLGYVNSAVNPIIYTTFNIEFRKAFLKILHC
Target sequence in this assay (P32121 whole entry partner): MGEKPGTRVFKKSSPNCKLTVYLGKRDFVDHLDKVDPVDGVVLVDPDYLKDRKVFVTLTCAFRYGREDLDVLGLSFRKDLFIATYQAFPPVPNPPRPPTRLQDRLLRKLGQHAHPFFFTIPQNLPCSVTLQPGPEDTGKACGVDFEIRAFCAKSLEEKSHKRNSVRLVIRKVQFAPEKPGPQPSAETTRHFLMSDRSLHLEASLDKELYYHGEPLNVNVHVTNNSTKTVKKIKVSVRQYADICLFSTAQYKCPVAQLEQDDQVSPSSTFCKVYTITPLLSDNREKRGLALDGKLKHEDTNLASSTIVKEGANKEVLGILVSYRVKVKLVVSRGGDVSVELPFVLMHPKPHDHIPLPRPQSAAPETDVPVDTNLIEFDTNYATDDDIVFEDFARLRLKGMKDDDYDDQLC

D2R [2] = target: T1, D2R; experiment: BRET-based Go protein activation assay at D2R (10 min); conditions: 10 min; for EC50: read-out: Go Protein Activation Assay pEC50 ± SEM (converted); for Bias Factors D2R: Go protein vs β-arrestin, log10(Emax/EC50)G protein − log10(Emax/EC50)β arrestin
Target sequence in this assay (P14416 whole entry): as the sequence (P14416 whole entry) above

D3R [3] = target: T2, D3R (Homo sapiens, UniProt P35462); experiment: BRET-based Go protein activation assay at D3R (10 min); conditions: for Selectivity (D2R/D3R) Go Protein Activation: D3R over D2R selectivity; for EC50: read-out: Go Protein Activation Assay pEC50 ± SEM (converted); for Bias Factors D3R: Go protein vs β-arrestin, log10(Emax/EC50)G protein − log10(Emax/EC50)β arrestin
T2 construct: expressed in transfected cells; host or cells: HEK293T
Target sequence in this assay (P35462 whole entry): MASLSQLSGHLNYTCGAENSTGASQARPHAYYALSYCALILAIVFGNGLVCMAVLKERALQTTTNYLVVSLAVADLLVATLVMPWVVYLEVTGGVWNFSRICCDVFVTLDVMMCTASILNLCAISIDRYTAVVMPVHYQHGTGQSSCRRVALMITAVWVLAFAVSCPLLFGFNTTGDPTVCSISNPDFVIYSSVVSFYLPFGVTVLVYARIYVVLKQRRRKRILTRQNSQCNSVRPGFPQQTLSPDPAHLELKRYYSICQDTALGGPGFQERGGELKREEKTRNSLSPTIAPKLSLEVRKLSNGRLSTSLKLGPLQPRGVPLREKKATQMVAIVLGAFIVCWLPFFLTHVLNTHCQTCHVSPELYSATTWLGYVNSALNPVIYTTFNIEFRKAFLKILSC

D3R [4] = target: T2, D3R; experiment: BRET-based β-arrestin recruitment assay at D3R (10 min); conditions: D3R; for EC50: read-out: β-arrestin Recruitment pEC50 ± SEM (converted)
Target sequence in this assay (P35462 whole entry): as above
Target sequence in this assay (P32121 whole entry partner): as the sequence (P32121 whole entry partner) above

β-arrestin Recruitment Change Emax over Quinpirole (D2R [1]) | β-arrestin Recruitment Emax ± SEM (% of Quinpirole) (D2R [1]) | β-arrestin Recruitment Fold Potency over Quinpirole (D2R [1]) [fold] | EC50 (D2R [1]) [nM] | Go Protein Activation Assay Change Emax over Quinpirole (D2R [2]; D2R) | Go Protein Activation Assay Emax ± SEM (% of Quinpirole) (D2R [2]; D2R) | Go Protein Activation Assay Fold Potency over Quinpirole (D2R [2]; D2R) [fold] | EC50 (D2R [2]; D2R) [nM] | Bias Factors D2R (D2R [2]) | Go Protein Activation Assay Change Emax over Quinpirole (D3R [3]; D3R) | Go Protein Activation Assay Emax ± SEM (% of Quinpirole) (D3R [3]; D3R) | Go Protein Activation Assay Fold Potency over Quinpirole (D3R [3]; D3R) [fold] | Selectivity (D2R/D3R) Go Protein Activation (D3R [3]) [fold] | EC50 (D3R [3]; D3R) [nM] | Bias Factors D3R (D3R [3]) | β-arrestin Recruitment Change Emax over Quinpirole (D3R [4]) | β-arrestin Recruitment Fold Potency over Quinpirole (D3R [4]) [fold] | EC50 (D3R [4]) [nM] | Compound | also measured
2.80 | 102.8 ± 2.5 % of Quinpirole | 0.06 | 1820 | −24.10 | 75.9 ± 5.3 % of Quinpirole | 0.10 | 331 | 0.6 | −6.1 | 93.9 ± 3.0 ^δδδδ % of Quinpirole | 0.051 | 5.8 | 57.5 | 0.9 | −5.2 | 0.009 | 490 | C[C@H]1COC(c2ccc(N)nc2)CN1CCCCOc1ccc2c(c1)NC(=O)CC2 (mixture of isomers) [rac-AB04-35] | β-arrestin Recruitment Emax ± SEM (% of Quinpirole) (D3R [4]): 94.8 ± 3.7 ^δδ % of Quinpirole
 |  |  |  |  |  |  |  |  |  |  |  |  |  |  |  |  |  | C[C@H]1CO[C@H](c2ccc(N)nc2)CN1CCCCOc1ccc2c(c1)NC(=O)CC2 [AB04-95] | Activity in D2R β-arrestin recruitment (result in words) (D2R [1]): did not show any activity; Activity in D2R Go protein activation (result in words) (D2R [2]; D2R): did not show any activity; D3R mediated Go protein activation (result in words) (D3R [3]; D3R): near complete abolishment; D3R mediated β-arrestin recruitment (result in words) (D3R [4]): near complete abolishment
21.6 | 121.6 ± 8.2 % of Quinpirole | 0.16 | 724 | 2.70 | 102.7 ± 4.0 % of Quinpirole | 0.66 | 52.5 | 1.1 | 0.4 | 100.4 ± 2.7 ^δδδδ % of Quinpirole | 0.158 | 2.8 | 18.6 | 1.0 | 4.0 | 0.025 | 174 | C[C@H]1CO[C@@H](c2ccc(N)nc2)CN1CCCCOc1ccc2c(c1)NC(=O)CC2 [AB04-96] | Higher efficacy compared to quinpirole in D2R mediated β-arrestin recruitment (D2R [1]): ~ 22%

Reference: paper PMC8069330, “Chirality of Novel Bitopic Agonists Determines Unique Pharmacology at the Dopamine D3 Receptor” (Biomolecules, 2021)
